Several values for one entry are separate records, joined by “and”; a condition that tells them apart may be missing. Equal entries are not always repeated.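 Values below derive from 48-hour exposures of cells grown in 96-well plates, with endpoints linearly interpolated between the two concentrations bracketing the appropriate inhibition level. GI50 marks 50% less growth. At the TGI there is no net growth.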 Bounds are passed on as bounds.

The values below come from PubChem BioAssay (NCI).

Some test systems named below: A549 NSCLC; LOX IMVI melanoma; MALME-3M melanoma; MOLT-4 leukemia; RXF 393 renal; SF-268 CNS; SK-MEL-28 melanoma; SK-OV-3 ovarian; SW-620 colon; TK-10 renal.
What all share (assay): inhibition of tumour cell growth, NCI panel, 48 h

For the molecule `CS(=O)(=O)CCNCc1ccc(-c2ccc3ncnc(Nc4ccc(OCc5ccccc5)cc4)c3c2)o1`, the GI50 in the experiment on A549 NSCLC is 5.19 µM; in the experiment with LOX IMVI melanoma, 4.05 µM; with MALME-3M melanoma, 4.99 µM; in the experiment with MOLT-4 leukemia it was 9.31 µM; in the experiment with RXF 393 renal it was 4.12 µM; with SF-268 CNS it was 9.14 µM. Further, the GI50 in the experiment with SK-MEL-28 melanoma was 4.04 µM; with SK-OV-3 ovarian, 0.401 µM; in the experiment with SW-620 colon, 6.94 µM; in the experiment on TK-10 renal it was 0.285 µM. For the same molecule, the TGI is greater than 25 µM in the experiment on A549 NSCLC; 8.75 µM with LOX IMVI melanoma; 11.1 µM in the experiment on MALME-3M melanoma; greater than 25 µM in the experiment with MOLT-4 leukemia; 10.1 µM with RXF 393 renal; greater than 25 µM in the experiment with SF-268 CNS. Moreover, the TGI in the experiment on SK-MEL-28 melanoma is 7.83 µM; with SK-OV-3 ovarian, greater than 25 µM; with SW-620 colon it was greater than 17.3 µM; in the experiment with TK-10 renal, 9.7 µM.
Turning to `N#CC(C#N)=C1Nc2ccccc2S1`, the GI50 is 23.5 µM in the experiment on A549 NSCLC; 42.5 µM in the experiment on LOX IMVI melanoma; 7.62 µM in the experiment on MALME-3M melanoma; 33.3 µM in the experiment with MOLT-4 leukemia; 36 µM in the experiment with RXF 393 renal; 27.8 µM in the experiment with SF-268 CNS. For the same molecule, the GI50 was 27.7 µM with SK-MEL-28 melanoma, 31.5 µM in the experiment with SK-OV-3 ovarian, 40.1 µM in the experiment on SW-620 colon and 29.2 µM in the experiment with TK-10 renal. The TGI in the experiment on A549 NSCLC was greater than 100 µM; with LOX IMVI melanoma it was greater than 100 µM; with MALME-3M melanoma, 34.5 µM; with MOLT-4 leukemia it was greater than 100 µM; in the experiment on RXF 393 renal, greater than 100 µM; with SF-268 CNS, greater than 100 µM. The TGI was 77.4 µM with SK-MEL-28 melanoma, greater than 100 µM with SK-OV-3 ovarian, greater than 100 µM in the experiment on SW-620 colon and 82.1 µM in the experiment on TK-10 renal.
For `O=C(O)C(CS)Nc1c2ccccc2nc2ccccc12` (stereo not drawn), the TGI with A549 NSCLC, in the experiment with LOX IMVI melanoma, with MALME-3M melanoma, with MOLT-4 leukemia, in the experiment with RXF 393 renal and in the experiment with SF-268 CNS was greater than 100 µM in each case. Also, the TGI in the experiment on SK-MEL-28 melanoma, in the experiment with SK-OV-3 ovarian, with SW-620 colon and in the experiment with TK-10 renal was greater than 100 µM each time.
Turning to `CCOC(=O)/C(C#N)=C/c1[nH]c(C(=O)OCc2ccccc2)c(C)c1C`, the TGI with A549 NSCLC, with LOX IMVI melanoma, with MALME-3M melanoma, with MOLT-4 leukemia, in the experiment on RXF 393 renal and in the experiment on SF-268 CNS was greater than 100 µM in each case. Besides, the TGI with SK-MEL-28 melanoma, in the experiment on SK-OV-3 ovarian, in the experiment on SW-620 colon and in the experiment with TK-10 renal was greater than 100 µM each time.
With `Cc1ccc(-c2nc3nc(-c4ccccc4)nc(N4CCCNCC4)c3o2)cc1`, the GI50 was 1.65 µM with A549 NSCLC; 1.76 µM with LOX IMVI melanoma; 1.85 µM with MALME-3M melanoma; 1.44 µM with MOLT-4 leukemia; 1.69 µM in the experiment on RXF 393 renal; 1.74 µM in the experiment with SF-268 CNS. For the same molecule, the GI50 with SK-MEL-28 melanoma was 1.84 µM; in the experiment on SK-OV-3 ovarian it was 1.81 µM; in the experiment with SW-620 colon it was 1.55 µM; in the experiment on TK-10 renal, 1.73 µM. For the same molecule, the TGI was determined as 3.06 µM in the experiment with A549 NSCLC; 3.29 µM with LOX IMVI melanoma; 3.38 µM in the experiment on MALME-3M melanoma; 3.15 µM in the experiment with MOLT-4 leukemia; 3.32 µM in the experiment on RXF 393 renal; 3.63 µM in the experiment on SF-268 CNS. Also, the TGI in the experiment on SK-MEL-28 melanoma was 3.28 µM; with SK-OV-3 ovarian it was 3.27 µM; in the experiment on SW-620 colon it was 3.17 µM; with TK-10 renal it was 3.14 µM.
As to `O=C(O)C(=Cc1ccc(-c2ccccc2)cc1)C(=O)O`, the TGI in the experiment on A549 NSCLC was greater than 58.8 µM; in the experiment on LOX IMVI melanoma it was 25.9 µM; in the experiment with MALME-3M melanoma, 39.7 µM; in the experiment on MOLT-4 leukemia, 53.6 µM; in the experiment on RXF 393 renal it was 14.5 µM; in the experiment on SF-268 CNS, greater than 59.3 µM. Besides, the TGI with SK-MEL-28 melanoma is 48.3 µM; with SK-OV-3 ovarian it was 41.2 µM; in the experiment with SW-620 colon, 97.5 µM; in the experiment with TK-10 renal, 30.7 µM.
Turning to `Nc1cccc(S(=O)(=O)NCC(=O)O)c1`, the TGI in the experiment with A549 NSCLC, in the experiment with LOX IMVI melanoma, with MALME-3M melanoma, in the experiment with MOLT-4 leukemia, in the experiment on RXF 393 renal and in the experiment with SF-268 CNS was greater than 100 µM throughout. For the same molecule, the TGI in the experiment on SK-MEL-28 melanoma, with SK-OV-3 ovarian, in the experiment with SW-620 colon and in the experiment with TK-10 renal was greater than 100 µM each time.
`CC/C=C\C[C@H](F)C/C=C1/C(=O)C=C[C@@H]1C/C=C\CCCC(=O)O`: the GI50 with A549 NSCLC was 7.3 µM; with LOX IMVI melanoma it was 3.77 µM; with MALME-3M melanoma, 8.08 µM; with MOLT-4 leukemia, 1.14 µM; in the experiment on RXF 393 renal, 5.19 µM; in the experiment with SF-268 CNS, 6.55 µM. Further, the GI50 in the experiment on SK-MEL-28 melanoma is 4.98 µM; in the experiment on SK-OV-3 ovarian it was 12.6 µM; with SW-620 colon, 5.64 µM; in the experiment with TK-10 renal, 12.2 µM. The TGI with A549 NSCLC was determined as 18.8 µM; with LOX IMVI melanoma it was 7.97 µM; in the experiment with MALME-3M melanoma, 23.2 µM; with MOLT-4 leukemia it was 12 µM; in the experiment with RXF 393 renal it was 10.2 µM; with SF-268 CNS, 22.4 µM. Moreover, the TGI with SK-MEL-28 melanoma was 11.4 µM; in the experiment with SK-OV-3 ovarian it was greater than 32.5 µM; in the experiment on SW-620 colon, 21.3 µM; in the experiment on TK-10 renal, 27.4 µM.
As to `COc1cc(C(=O)CBr)c(OC)cc1C`, the TGI with A549 NSCLC, with LOX IMVI melanoma, in the experiment on MALME-3M melanoma, in the experiment with MOLT-4 leukemia, in the experiment with RXF 393 renal and with SF-268 CNS was greater than 100 µM in each case. Moreover, the TGI in the experiment with SK-MEL-28 melanoma, in the experiment with SK-OV-3 ovarian, with SW-620 colon and in the experiment with TK-10 renal was greater than 100 µM in each case.
As for `O=C(O)c1nn(-c2ccccc2-c2n[nH]c(=O)[nH]c2=O)c(=O)[nH]c1=O`, the TGI in the experiment on A549 NSCLC, with LOX IMVI melanoma, with MALME-3M melanoma, with MOLT-4 leukemia, in the experiment on RXF 393 renal and in the experiment on SF-268 CNS was greater than 100 µM each time. In addition, the TGI with SK-MEL-28 melanoma, with SK-OV-3 ovarian, with SW-620 colon and with TK-10 renal was greater than 100 µM throughout.
For `O=C1C(Cl)=C(NCCN2CCOCC2)C(=O)c2ncccc21`, the TGI was 4.18 µM and 3.87 µM in the experiment with A549 NSCLC; 3.44 µM and 2.55 µM with LOX IMVI melanoma; 3.07 µM and 2.63 µM with MALME-3M melanoma; 4.01 µM and 5.27 µM with MOLT-4 leukemia; 3.38 µM and 3.06 µM in the experiment on RXF 393 renal; 4.27 µM and 15.5 µM in the experiment with SF-268 CNS. In addition, the TGI with SK-MEL-28 melanoma was 3.29 µM; with SK-OV-3 ovarian, 3.36 µM and 7.23 µM; with SW-620 colon, 6.42 µM and 6.22 µM; with TK-10 renal it was 3.44 µM and 30.3 µM. Further, the GI50 is 0.905 µM in the experiment on LOX IMVI melanoma; 1.13 µM in the experiment on MALME-3M melanoma; 2.24 µM in the experiment with MOLT-4 leukemia; 1.66 µM with RXF 393 renal; 3.8 µM with SF-268 CNS; 2.26 µM with SK-OV-3 ovarian. Besides, the GI50 in the experiment on SW-620 colon was 2.45 µM; in the experiment with TK-10 renal, 16.5 µM.
On to `CC1CN1C(=O)NCCCCCCNC(=O)N1CC1C` (stereo not drawn), for which the TGI in the experiment with A549 NSCLC was greater than 100 µM; in the experiment with LOX IMVI melanoma, greater than 60.3 µM; with MALME-3M melanoma, greater than 100 µM; in the experiment on MOLT-4 leukemia, greater than 100 µM; in the experiment with RXF 393 renal it was greater than 100 µM; in the experiment with SF-268 CNS, greater than 100 µM. The TGI in the experiment on SK-MEL-28 melanoma, in the experiment on SK-OV-3 ovarian, in the experiment with SW-620 colon and in the experiment with TK-10 renal was greater than 100 µM in each case.
As to `CC1OC(OC2C(OC(=O)[C@]34CCC(C)(C)CC3C3=CCC5[C@@]6(C)C[C@H](O)[C@H](OC7OC(CO)C(O)C(O)C7N)[C@@](C)(C(=O)O)C6CC[C@@]5(C)C3(C)CC4)OCC(O)C2O)C(O)C(O)C1OC1OCC(O)C(O)C1O` (stereo partly drawn), the TGI with A549 NSCLC, with LOX IMVI melanoma, with MALME-3M melanoma, in the experiment on MOLT-4 leukemia, with RXF 393 renal and with SF-268 CNS was greater than 100 µM each time. The TGI in the experiment on SK-MEL-28 melanoma, with SK-OV-3 ovarian, in the experiment on SW-620 colon and with TK-10 renal was greater than 100 µM throughout.
Take `CCC[CH2][Sn]1([CH2]CCC)[O]C(=O)CN=Cc2c(ccc3ccccc23)[O]1`: the GI50 with A549 NSCLC was 1.74 µM; with LOX IMVI melanoma it was 0.242 µM; in the experiment with MALME-3M melanoma it was 0.134 µM; in the experiment on MOLT-4 leukemia it was 0.319 µM; in the experiment with RXF 393 renal it was 0.136 µM; in the experiment with SF-268 CNS it was 0.351 µM. Further, the GI50 is 0.363 µM in the experiment on SK-MEL-28 melanoma, 1.11 µM with SK-OV-3 ovarian, 0.184 µM with SW-620 colon and 0.293 µM with TK-10 renal. The TGI worked out at 3.4 µM with A549 NSCLC; 0.827 µM in the experiment on LOX IMVI melanoma; 0.464 µM in the experiment on MALME-3M melanoma; 1.14 µM in the experiment with MOLT-4 leukemia; 0.318 µM with RXF 393 renal; 1.18 µM with SF-268 CNS. In addition, the TGI came out at 1.13 µM in the experiment with SK-MEL-28 melanoma, 2.31 µM in the experiment with SK-OV-3 ovarian, 0.417 µM with SW-620 colon and 0.743 µM in the experiment on TK-10 renal.
